Calls of active or inactive are those of the source. The rule behind the calls is not given here.
Tests used:
[1] = tested on: MDA-MB-231; experiment: Growth inhibition of human MDA-MB-231 cells measured after 5 days by CellTiter-Glo assay; format: functional; settings: time 5 day; for GI50: Homo sapiens, MDA-MB-231, 120 h
[2] = biological target: T1, Dual specificity protein kinase TTK (Homo sapiens) (UniProt P33981); experiment: Binding affinity to human hexa-His tagged MPS1 (515 to 795 residue) expressed in Escherichia coli BL2I-DE3 cells assessed as change in melting temperature by thermal shift assay
T1 sequence (whole entry): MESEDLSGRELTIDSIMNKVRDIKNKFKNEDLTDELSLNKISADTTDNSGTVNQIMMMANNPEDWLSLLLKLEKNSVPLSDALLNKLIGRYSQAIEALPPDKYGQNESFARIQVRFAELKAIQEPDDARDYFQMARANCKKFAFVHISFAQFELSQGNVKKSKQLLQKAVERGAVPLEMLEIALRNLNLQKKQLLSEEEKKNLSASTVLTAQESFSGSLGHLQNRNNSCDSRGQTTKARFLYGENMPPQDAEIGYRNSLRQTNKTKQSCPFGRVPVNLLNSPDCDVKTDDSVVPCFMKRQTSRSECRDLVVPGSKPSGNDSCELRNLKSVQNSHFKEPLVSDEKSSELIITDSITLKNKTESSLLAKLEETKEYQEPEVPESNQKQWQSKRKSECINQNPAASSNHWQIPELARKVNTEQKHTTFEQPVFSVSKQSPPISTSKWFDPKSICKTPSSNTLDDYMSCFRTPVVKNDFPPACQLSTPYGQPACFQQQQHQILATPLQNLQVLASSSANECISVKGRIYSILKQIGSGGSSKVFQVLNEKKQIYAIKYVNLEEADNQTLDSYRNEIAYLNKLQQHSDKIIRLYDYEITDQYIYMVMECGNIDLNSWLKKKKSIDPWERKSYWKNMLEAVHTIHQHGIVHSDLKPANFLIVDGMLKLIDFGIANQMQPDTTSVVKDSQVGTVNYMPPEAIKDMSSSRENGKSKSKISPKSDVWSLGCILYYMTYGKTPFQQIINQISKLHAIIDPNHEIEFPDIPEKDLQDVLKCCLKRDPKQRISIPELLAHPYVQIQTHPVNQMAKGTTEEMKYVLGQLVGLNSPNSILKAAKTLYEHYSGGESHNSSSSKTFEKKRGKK

[3] = Toxicity in athymic mouse xenografted with human MDA-MB-231 cells assessed as change in intestine morphology at 2 mg/kg administered daily and measured twice a week; format: organism-based; settings: in vivo
[4] = biological target: T1, Dual specificity protein kinase TTK (Homo sapiens); experiment: Inhibition of human […] assessed as reduction in MPS1 autophosphorylation at 0.1 to 10 uM by Western blot analysis; settings: dose 0.1-10 µM
[5] = Oral bioavailability in ICR mouse at 10 mg/kg; format: ADME, organism-based; settings: in vivo
[6] = Metabolic stability in human liver microsomes assessed as compound remaining after 30 mins; format: ADME, Microsome; settings: read-out: Stability
[7] = AUC in ICR mouse at 10 mg/kg, po; format: ADME, organism-based; set-up: dose 10 mg/kg; settings: in vivo
[8] = biological target: T1, Dual specificity protein kinase TTK (Homo sapiens); experiment: Inhibition of human […] assessed as reduction in histone H3 phosphorylation at 0.1 to 10 uM by Western blot analysis; settings: dose 0.1-10 µM
[9] = Toxicity in athymic mouse xenografted with human MDA-MB-231 cells assessed as effect on body weight at 2 mg/kg administered daily and measured twice a week; format: organism-based; settings: in vivo
[10] = Toxicity in athymic mouse xenografted with human MDA-MB-231 cells assessed as body weight gain at 2 mg/kg administered daily and measured twice a week (reference value: 15.5 %); format: organism-based; settings: in vivo
[11] = biological target: T2, Dual specificity protein kinase TTK (Homo sapiens, UniProt P33981); experiment: Inhibition of human hexa-His tagged MPS1 (515 to 795 residue) expressed in Escherichia coli BL2I-DE3 cells incubated for 4 hrs in presence of ATP by ADP-glo luminescence assay
T2 sequence (P33981 whole entry): T1 sequence (whole entry)

[12] = Cmax in ICR mouse at 10 mg/kg, po; format: ADME, organism-based; set-up: route oral, dose 10 mg/kg; settings: in vivo
[13] = tested on: MDA-MB-231; experiment: Antitumor activity against human MDA-MB-231 cells xenografted in athymic mouse model assessed as tumor growth inhibition at 2 mg/kg administered daily and measured twice a week; format: functional; settings: read-out: TGI
[14] = Half life in ICR mouse at 10 mg/kg, po; format: ADME, organism-based; settings: in vivo

Compound	GI50 [1]	GI90 [1]	ΔTm [2]	other results
COc1cc(N2CCCC2=O)ccc1Nc1nc(NC2CCCCC2)c2c(C(F)(F)F)c[nH]c2n1	327 nM	>1000 nM	15.1 °C	
N#Cc1c[nH]c2nc(Nc3ccc(N4CCCC4=O)cn3)nc(NC3CCCCC3)c12	364 nM	668 nM	13.8 °C	
COc1cc(N2CCCC2=O)ccc1Nc1nc(NC2CCC2)c2c(C#N)c[nH]c2n1	> 1000 nM	>1000 nM	14.3 °C	
COc1cc(N2CCCC2=O)ccc1Nc1nc(NC2CCOCC2)c2c(C#N)c[nH]c2n1	> 1000 nM	>1000 nM	14.8 °C	
N#Cc1c[nH]c2nc(Nc3ccc(N4CCCC4=O)cc3)nc(NC3CCCCC3)c12	46 nM	67 nM	17.2 °C	
COc1cc(N2CCCC2=O)ccc1Nc1nc(NC(C)C)c2c(C#N)c[nH]c2n1	10 nM	481 nM	14.2 °C	
COc1cc(N2CCCC2=O)ccc1Nc1nc(NC2CCCCC2)c2c(C#N)c[nH]c2n1	11 nM	37 nM	18.3 °C	Activity [3]: Non-Toxic; inhibition [4]: Active; bioavailability [5]: 61%; remaining at 0.5 h [6]: 60%; AUC [7]: 6150 ng·h/mL; inhibition [8]: Active; Activity [9]: Non-Toxic; Activity [10]: 7.6%; IC50 [11]: 6.4 nM; Cmax [12]: 2220 ng/mL; inhibition in vivo at 2 mg/kg [13]: 57%; half-life [14]: 1.1 h
Cc1cc(N2CCOCC2)ccc1Nc1nc(NC2CCCCC2)c2c(C(F)(F)F)c[nH]c2n1	> 1000 nM	>1000 nM	17.2 °C	
Cn1cc(Nc2nc(NC3CCCCC3)c3c(C#N)c[nH]c3n2)cn1	109 nM	>1000 nM	15.2 °C	
COc1cc(N2CCCC2=O)ccc1Nc1nc(NCC(C)C)c2c(C#N)c[nH]c2n1	20 nM	122 nM	13.8 °C	
CCCCNc1nc(Nc2ccc(N3CCCC3=O)cc2OC)nc2[nH]cc(C#N)c12	18 nM	267 nM	11.2 °C	
COc1cc(N2CCCC2=O)ccc1Nc1nc(NC2CCCCC2)c2cc[nH]c2n1	55 nM	380 nM	15.3 °C	
COc1cc(N2CCCC2=O)ccc1Nc1nc(NCC2CCC2)c2c(C#N)c[nH]c2n1	> 1000 nM	>1000 nM	15.2 °C	
COc1cc(N2CCCC2=O)ccc1Nc1nc(NCC(C)(C)C)c2c(C#N)c[nH]c2n1	149 nM	>1000 nM	14.4 °C	
CNc1nc(Nc2ccc(N3CCCC3=O)cc2OC)nc2[nH]cc(C#N)c12	637 nM	>1000 nM	7.3 °C	
COc1cc(C(=O)N2CCOCC2)ccc1Nc1nc(NC2CCCCC2)c2c(C#N)c[nH]c2n1	3 nM	43 nM	16.1 °C	bioavailability [5]: 98%; remaining at 0.5 h [6]: 56%; AUC [7]: 3770 ng·h/mL; IC50 [11]: 3.2 nM; Cmax [12]: 995 ng/mL; half-life [14]: 2.6 h
COc1cc(N2CCCC2=O)ccc1Nc1nc(NCC2CCCC2)c2c(C#N)c[nH]c2n1	171 nM	>1000 nM	15.2 °C	
COCC(C)(C)Nc1nc(Nc2ccc(N3CCCC3=O)cc2OC)nc2[nH]cc(C#N)c12	916 nM	>1000 nM	15.1 °C	
CCOc1cc(N2CCCC2=O)ccc1Nc1nc(NC2CCCCC2)c2c(C#N)c[nH]c2n1	108 nM	478 nM	16.9 °C	
COc1cc(N2CCCC2=O)ccc1Nc1nc(NC2CCCC2)c2c(C#N)c[nH]c2n1	25 nM	383 nM	17.1 °C	
Cc1cc(N2CCOCC2)ccc1Nc1nc(NC2CCCCC2)c2c(C#N)c[nH]c2n1	17 nM	313 nM	19.9 °C	bioavailability [5]: 44%; remaining at 0.5 h [6]: 57%; AUC [7]: 1270 ng·h/mL; IC50 [11]: 6.3 nM; Cmax [12]: 749 ng/mL; half-life [14]: 1.2 h
Cc1cc(N2CCOCC2)ccc1Nc1nc(NC2CCCCC2)c2c(Cl)c[nH]c2n1	129 nM	>1000 nM	18.1 °C	
COc1cc(N2CCOCC2=O)ccc1Nc1nc(NC2CCCCC2)c2c(C#N)c[nH]c2n1	10 nM	>1000 nM	17.2 °C	
CC[C@H](C)Nc1nc(Nc2ccc(N3CCCC3=O)cc2OC)nc2[nH]cc(C#N)c12	96 nM	328 nM	15.1 °C	

Source: ChEMBL document CHEMBL5036311, “X-ray Crystal Structure-Guided Design and Optimization of 7H-Pyrrolo[2,3-d]pyrimidine-5-carbonitrile Scaffold as a Potent and Orally Active Monopolar Spindle 1 Inhibitor” (J Med Chem, 2021)
